Data on twelve compounds can be found in patent US10500209B2, “Quinazolinones as bromodomain inhibitors” (Zenith Epigenetics Ltd., priority 2013, dated 2019).

SMILES strings stand for the structures.

Data set [1] concerns the target T1, Brd4 bromodomain 1 (BRD4(1)) (Homo sapiens, UniProt O60885).
T1 construct: made in house; host or cells: E. coli BL21(DE3)
In words: Inhibition of tetra-acetylated histone H4 binding to BET bromodomains (TR-FRET). Also noted: key: Active: Compounds with an IC50 value less than 30 μM were deemed to be active.; Not Active: Compounds with an IC50 value less than 30 μM were deemed to be active. The following applies: first bromodomain of Brd4, tetra-acetylated histone H4 peptide. In short, it runs like this:
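N-terminally His-tagged bromodomain (200 nM) from E. coli was mixed with biotinylated tetra-acetylated histone H4 peptide (25-50 nM), Eu-streptavidin and XL665 anti-His, plus compound, in HEPES pH 7.4 buffer with 0.2% DMSO. After 2 h at room temperature, the 665/620 nm TR-FRET decrease gave IC50 from dose-response curves.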
On the technique in general: TR-FRET usually uses a lanthanide donor and a delayed reading to cut background.

Data set [2] has as its system c-myc in MV4-11 cells. In words: Inhibition of c-myc expression in cancer cell lines (mRNA, real-time PCR). Type of data set: cell-based, Human. Also noted: key: Active: Compounds with an IC50 value less than 30 μM were deemed to be active.; Not Active: Compounds with an IC50 value less than 30 μM were deemed to be active. The following applies: 3 h. In outline: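 Duplex RT-qPCR of c-myc against cyclophilin cDNA gave IC50 from a dose–response curve. Input was isolated mRNA from 2.5×10^4 MV4-11 cells after 3 h exposure at 37 °C to compound or 0.1% DMSO vehicle.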

For data set [3], the system named is human AML MV-4-11 cells. In words: Inhibition of cell proliferation in cancer cell lines (CellTiter Aqueous One). Type of data set: cell-based. On the set-up: key: Active: Compounds with an IC50 value less than 30 μM were deemed to be active.; Not Active: Compounds with an IC50 value less than 30 μM were deemed to be active. The following applies: 72 h. In short, it runs like this: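 IC50 values come from blank-corrected proliferation relative to DMSO controls, read as 490 nm absorbance 3–4 h after CellTiter Aqueous One addition. Before that, cells seeded at 5×10^4/well were exposed for 72 h (37° C, 5% CO2) to triplicate two-fold compound dilutions spanning 30–0.2 μM.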

For data set [4], the system named is hIL-6 mRNA. In words: Inhibition of hIL-6 mRNA transcription in LPS-stimulated U937 macrophages. Type of data set: cell-based, human. Also noted: key: Active: Compounds with an IC50 value less than 30 μM were deemed to be active.; Not Active: Compounds with an IC50 value less than 30 μM were deemed to be active. The following applies: U937 cells differentiated with PMA, LPS stimulation, 3 h. The procedure:
In this example, hIL-6 mRNA in tissue culture cells was quantitated to measure the transcriptional inhibition of hIL-6 when treated with a compound of the present disclosure.
A human leukemic monocyte lymphoma cell line (U937) was plated (3.2×10^4 cells per well) in a 96-well plate in 100 μL RPMI-1640 containing 10% FBS and penicillin/streptomycin, and differentiated into macrophages for 3 days in 60 ng/mL PMA ([…]) at 37° C. in 5% CO2 prior to the addition of the compound of interest. The cells were pretreated for 1 h with the test compound prior to stimulation with 1 ug/mL lipopolysaccharide from Escherichia coli. The cells were incubated at 37° C. for 3 h before the cells were harvested. At time of harvest, the spent media was removed from the cells and the cells were rinsed in 200 μL PBS. Cell lysis solution (70 μL) was added the cells in each well and incubated for 5-10 min at room temperature, to allow for complete cell lysis and detachment. mRNA was then prepared using the “mRNA Catcher PLUS plate” (Invitrogen), according to the protocol supplied. After the last wash, as much wash buffer as possible was aspirated without allowing the wells to dry. Elution buffer (E3, 70 μL) was then added to each well. mRNA was then eluted by incubating the mRNA Catcher PLUS plate with Elution Buffer for 5 min at 68° C. and then immediately placing the plate on ice.
The eluted mRNA isolated was then used in a one-step quantitative real-time PCR reaction, using components of the Ultra Sense Kit together with Applied Biosystems primer-probe mixes. Real-time PCR data was analyzed, normalizing the Ct values for hIL-6 to an internal control, prior to determining the fold induction of each unknown sample, relative to the control.

In data set [5] the test system is hApoA-1 mRNA. In words: Up-regulation of hApoA-1 mRNA transcription in Huh7 cells. Type of data set: cell-based, human. Also noted: key: Active: Compounds with an EC170 value less than 30 μM were deemed to be active. As to conditions: 48 h treatment. The procedure: In this example, ApoA-I mRNA in tissue culture cells was quantitated to measure the transcriptional up-regulation of ApoA-I when treated with a compound of the present disclosure.
Huh7 cells (2.5×10^5 per well) were plated in a 96-well plate using 100 μL DMEM per well, (Gibco DMEM supplemented with penicillin/streptomycin and 10% FBS), 24 h before the addition of the compound of interest. After 48 h treatment, the spent media was removed from the Huh-7 cells and placed on ice (for immediate use) or at −80° C. (for future use) with the “LDH cytotoxicity assay Kit II” from Abcam. The cells remaining in the plate were rinsed with 100 μL PBS.
Then 85 μL of cell lysis solution was added to each well and incubated for 5-10 min at room temperature, to allow for complete cell lysis and detachment. mRNA was then prepared using the “mRNA Catcher PLUS plate” from Life Technologies, according to the protocol supplied. After the last wash, as much wash buffer as possible was aspirated without allowing the wells to dry. Elution Buffer (E3, 80 μL) was then added to each well. mRNA was then eluted by incubating the mRNA Catcher PLUS plate with Elution Buffer for 5 min at 68° C., and then 1 min at 4° C. Catcher plates with mRNA eluted were kept on ice for use or stored at −80° C.
The eluted mRNA isolated was then used in a one-step real-time PCR reaction, using components of the Ultra Sense Kit together with Life Technologies primer-probe mixes. Real-time PCR data was analyzed, using the Ct values, to determine the fold induction of each unknown sample, relative to the control (that is, relative to the control for each independent DMSO concentration).
Compounds with an EC170 value less than 30 μM were deemed to be active.

`COc1cc(OC)c2c(=O)[nH]c(-c3ncccc3NCCNC(=O)C(C)C)nc2c1` [Example 56, N-(2-((2-(5,7-Dimethoxy-4-oxo-3,4-dihydroquinazolin-2-yl)pyridin-3-yl)amino)ethyl)isobutyramide] displayed a melting point of 235 to 237 °C. For the same compound, in data set [1], the “FRET activity BRD4(1)” value is recorded as “Active”. Further, the “c-myc activity (IC50 < 30 μM)” value in data set [2] is on record as “Active”. Besides, in data set [3], the “Cell Proliferation activity (IC50 < 30 μM)” value (from here on “Cell Proliferation activity”) is reported as “Active”. In data set [4], the “IL-6 activity (IC50 < 30 μM)” value is listed as “Active”.
`COc1ccc(-c2nc3cc(OC)cc(OC)c3c(=O)[nH]2)c(NCCN2CCN(C(C)C)CC2)c1` [Example 22, 2-(2-((2-(4-Isopropylpiperazin-1-yl)ethyl)amino)-4-methoxyphenyl)-5,7-dimethoxyquinazolin-4(3H)-one]: the melting point was in the range of 227 to 228 °C. For the same compound, in data set [1], the “FRET activity BRD4(1)” value is “Active”. Besides, the “c-myc activity (IC50 < 30 μM)” value in data set [2] was “Active”. For the same compound, in data set [3], the “Cell Proliferation activity” value is on record as “Active”. Further, the “IL-6 activity (IC50 < 30 μM)” value in data set [4] is listed as “Active”.
Compound `COc1ccc(-c2nc3cc(OC)cc(OC)c3c(=O)[nH]2)c(NC2CCN(C(C)C)CC2)c1` [Example 3, 2-(2-((1-isopropylpiperidin-4-yl)amino)-4-methoxyphenyl)-5,7-dimethoxyquinazolin-4(3H)-one] returned a melting point of 248 to 250 °C. Also, the “FRET activity BRD4(1)” value in data set [1] is given as “Active”. The “c-myc activity (IC50 < 30 μM)” value in data set [2] is on record as “Active”. Also, the “Cell Proliferation activity” value in data set [3] was “Active”. Moreover, the “IL-6 activity (IC50 < 30 μM)” value in data set [4] is reported as “Active”.
`COc1ccc(-c2nc3cc(OC)cc(OC)c3c(=O)[nH]2)c(NCCNC(C)C)c1` [Example 8, 2-(2-((2-(Isopropylamino)ethyl)amino)-4-methoxyphenyl)-5,7-dimethoxyquinazolin-4(3H)-one] registered a melting point of 262 to 264 °C. For the same compound, in data set [1], the “FRET activity BRD4(1)” value is listed as “Active”. Further, the “c-myc activity (IC50 < 30 μM)” value in data set [2] is “Active”. Further, the “Cell Proliferation activity” value in data set [3] was “Active”. The “IL-6 activity (IC50 < 30 μM)” value in data set [4] is on record as “Active”.
Turning to `CCNC(=O)N1CCC(Nc2cccnc2-c2nc3cc(OC)cc(OC)c3c(=O)[nH]2)CC1` [Example 52, 4-((2-(5,7-dimethoxy-4-oxo-3,4-dihydroquinazolin-2-yl)pyridin-3-yl)amino)-N-ethylpiperidine-1-carboxamide], the melting point was in the range of 151 to 152 °C. In addition, the “FRET activity BRD4(1)” value in data set [1] is “Active”. Further, in data set [2], the “c-myc activity (IC50 < 30 μM)” value is “Active”. Moreover, the “Cell Proliferation activity” value in data set [3] was “Not Active”. Further, in data set [4], the “IL-6 activity (IC50 < 30 μM)” value is recorded as “Active”.
Turning to `COc1cc(OC)c2c(=O)[nH]c(-c3ncccc3NC3CCN(C(=O)C(C)O)CC3)nc2c1` (stereo not drawn) [Example 60, 2-(3-((1-(2-hydroxypropanoyl)piperidin-4-yl)amino)pyridin-2-yl)-5,7-dimethoxyquinazolin-4(3H)-one], the melting point fell in the range of 290 to 291 °C. The “FRET activity BRD4(1)” value in data set [1] is on record as “Active”. Besides, the “c-myc activity (IC50 < 30 μM)” value in data set [2] is “Active”. The “Cell Proliferation activity” value in data set [3] was “Active”. The “IL-6 activity (IC50 < 30 μM)” value in data set [4] is “Active”.
The compound `COc1cc(OC)c2c(=O)[nH]c(-c3ncc(OCCO)cc3NC3CCN(C(=O)C(C)C)CC3)nc2c1` [Example 64, 2-[5-(2-Hydroxyethoxy)-3-(1-isobutyroylpiperidin-4-ylamino)pyridin-2-yl]-5,7-dimethoxyquinazolin-4(3H)-one] yielded a melting point of 173 to 176 °C. The “FRET activity BRD4(1)” value in data set [1] is given as “Active”. In addition, the “c-myc activity (IC50 < 30 μM)” value in data set [2] is given as “Active”. The “Cell Proliferation activity” value in data set [3] was “Active”. Moreover, in data set [4], the “IL-6 activity (IC50 < 30 μM)” value is “Active”.
On to `COc1ccc(-c2nc3cc(OC)cc(OC)c3c(=O)[nH]2)c(NCC2CCN(C)C2)c1` (stereo not drawn) [Example 7, 5,7-Dimethoxy-2-(4-methoxy-2-(((1-methylpyrrolidin-3-yl)methyl)amino)phenyl)-quinazolin-4(3H)-one], for which the melting point was in the range of 233 to 235 °C. Moreover, in data set [1], the “FRET activity BRD4(1)” value is recorded as “Active”. Further, in data set [2], the “c-myc activity (IC50 < 30 μM)” value is listed as “Active”. Besides, the “Cell Proliferation activity” value in data set [3] is reported as “Active”. Moreover, the “IL-6 activity (IC50 < 30 μM)” value in data set [4] is recorded as “Active”.
Regarding `COc1ccc(-c2nc3cc(OC)cc(OC)c3c(=O)[nH]2)c(NC2CCN(C)CC2)c1` [Example 1, 5,7-Dimethoxy-2-(4-methoxy-2-((1-methylpiperidin-4-yl)amino)phenyl)-quinazolin-4(3H)-one], the melting point lay in the range of 252 to 253 °C. The “FRET activity BRD4(1)” value in data set [1] is recorded as “Active”. In addition, in data set [2], the “c-myc activity (IC50 < 30 μM)” value was “Active”. Besides, the “Cell Proliferation activity” value in data set [3] is recorded as “Active”. Also, in data set [4], the “IL-6 activity (IC50 < 30 μM)” value is given as “Active”. For the same compound, the “ApoA-1 activity (EC170 < 30 μM)” value in data set [5] is listed as “Active”.
With `COc1cc(OC)c2c(=O)[nH]c(-c3ncccc3NC3CCN(C(=O)C(F)(F)F)CC3)nc2c1` [Example 46, 5,7-Dimethoxy-2-(3-((1-(2,2,2-trifluoroacetyl)piperidin-4-yl)amino)pyridin-2-yl)quinazolin-4(3H)-one], the melting point fell in the range of 218 to 219 °C. Moreover, in data set [1], the “FRET activity BRD4(1)” value is listed as “Active”. Besides, the “c-myc activity (IC50 < 30 μM)” value in data set [2] is “Active”. Besides, in data set [3], the “Cell Proliferation activity” value is “Active”. For the same compound, the “IL-6 activity (IC50 < 30 μM)” value in data set [4] is given as “Active”.
Turning to `COc1cc(OC)c2c(=O)[nH]c(-c3ncccc3NC3CCN(C(=O)C(C)C)CC3)nc2c1` [Example 36, 2-(-((1-Isobutyrylpiperidin-4-yl)amino)pyridin-2-yl)-5,7-dimethoxyquinazolin-4(3H)-one], the “FRET activity BRD4(1)” value in data set [1] is given as “Active”. Further, in data set [2], the “c-myc activity (IC50 < 30 μM)” value was “Active”. Also, in data set [3], the “Cell Proliferation activity” value was “Active”. Moreover, the “IL-6 activity (IC50 < 30 μM)” value in data set [4] was “Active”. Moreover, the “ApoA-1 activity (EC170 < 30 μM)” value in data set [5] is given as “Active”.
`COc1ccc(-c2nc3cc(OC)cc(OC)c3c(=O)[nH]2)c(NCCN2CCN(C)CC2)c1` [Example 25, 5,7-Dimethoxy-2-(4-methoxy-2-((2-(4-methylpiperazin-1-yl)ethyl)amino)phenyl)-quinazolin-4(3H)-one] displayed a melting point of 230 to 231 °C. In addition, the “FRET activity BRD4(1)” value in data set [1] is “Active”. Moreover, the “IL-6 activity (IC50 < 30 μM)” value in data set [4] was “Active”. For the same compound, in data set [5], the “ApoA-1 activity (EC170 < 30 μM)” value is given as “Active”.

A word on the melting point: it is the temperature, or range, at which the solid turns liquid.
